Inhibition data for 35 molecules are collected here from patent US7851474B2, “Dipiperazinyl ketones and related analogues” (Neurogen Corporation, priority 2005, dated 2010).

Each structure is given as a SMILES string.

For one test, the target named is T1, chimeric human H3 receptor (Homo sapiens, UniProt Q9Y5N1, E19D).
T1 construct: made in house; host or cells: Sf9 insect cells (baculovirus infection); P2 membrane preparation
T1 sequence (Q9Y5N1 with tags, fused parts or gaps E19D): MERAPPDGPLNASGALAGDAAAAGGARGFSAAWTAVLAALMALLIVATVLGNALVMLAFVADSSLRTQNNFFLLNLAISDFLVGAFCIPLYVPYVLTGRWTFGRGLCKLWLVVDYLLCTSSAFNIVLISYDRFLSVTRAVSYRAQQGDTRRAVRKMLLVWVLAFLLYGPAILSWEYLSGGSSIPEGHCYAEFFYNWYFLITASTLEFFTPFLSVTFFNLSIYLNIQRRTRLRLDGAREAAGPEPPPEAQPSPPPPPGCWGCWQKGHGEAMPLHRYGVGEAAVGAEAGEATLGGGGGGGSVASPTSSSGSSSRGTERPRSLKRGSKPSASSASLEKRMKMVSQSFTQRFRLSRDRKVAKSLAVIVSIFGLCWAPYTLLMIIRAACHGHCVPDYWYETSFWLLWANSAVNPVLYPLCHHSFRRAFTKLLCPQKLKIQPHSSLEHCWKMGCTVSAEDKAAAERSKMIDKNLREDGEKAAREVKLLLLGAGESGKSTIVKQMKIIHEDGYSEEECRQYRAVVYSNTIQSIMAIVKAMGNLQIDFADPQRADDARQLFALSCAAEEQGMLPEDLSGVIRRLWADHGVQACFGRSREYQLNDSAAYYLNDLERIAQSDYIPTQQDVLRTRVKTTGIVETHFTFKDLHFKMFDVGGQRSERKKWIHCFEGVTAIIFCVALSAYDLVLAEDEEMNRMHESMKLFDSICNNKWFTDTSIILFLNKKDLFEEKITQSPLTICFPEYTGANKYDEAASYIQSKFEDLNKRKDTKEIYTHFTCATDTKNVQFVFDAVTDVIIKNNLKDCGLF
Nature of the test: Chimeric human H3 receptor screening GTP binding assay (inhibition of histamine-stimulated GTP-gamma35S binding, Example 8). Conditions: 1 h; "+" in Ki of Table II; assay of Example 8; read-out: percent inhibition of agonist-induced GTP-gammaS binding to H3. The test is classed as biochemical. In short, it runs like this: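 Sf9 membranes co-expressing the chimeric receptor and a heterotrimeric G-protein (35 μg protein) in Tris pH 7.4 buffer with 10 μM GDP; compound at 4 μM plus 1 μM histamine, 125 pM GTP-gamma35S, 60 min at room temperature. Filter-bound radioactivity read; non-specific binding defined with 10 uM GTP-gammaS; percent inhibition of histamine signal.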
(GTPγS is a poorly hydrolysed GTP analogue; its binding reports G protein activation.)
For the molecule `O=C(CN1CCN(C(=O)c2csc(-c3ccncc3)n2)CC1)N1CCN(C2CCC2)CC1` [Compound 543, 1-cyclobutyl-4-({4-[(2-pyridin-4-yl-1,3-thiazol-4-yl)carbonyl]piperazin-1-yl}acetyl)piperazine], the inhibition at 4 µM is more than 90%.
For `O=C(/C=C/c1c(Cl)cccc1Cl)N1CCN(CC(=O)N2CCN(C3CCC3)CC2)CC1` [Compound 522, 1-cyclobutyl-4-({4-[(2E)-3-(2,6-dichlorophenyl)prop-2-enoyl]piperazin-1-yl}acetyl)piperazine], the inhibition at 4 µM is more than 90%.
On the same count and under the same terms, the same measure for `O=C(C=Cc1ccccc1F)N1CCN(CC(=O)N2CCN(C3CCC3)CC2)CC1` [Compound 524, 1-cyctobutyl-4-({4-[(2E)-3-(2-fluorophenyl)prop-2-enoyl]piperazin-1-yl}acetyl)piperazine]: more than 90%.
For the molecule `CCc1ccc(C(=O)N2CCN(CC(=O)N3CCN(C4CCC4)CC3)CC2)s1` [Compound 568, 1-cyclobutyl-4-({4-[(5-ethyl-2-thienyl)carbonyl]piperazin-1-yl}acetyl)piperazine], the inhibition at 4 µM was more than 90%.
Take `COc1cccc(CC(=O)N2CCN(CC(=O)N3CCN(C4CCC4)CC3)CC2)c1` [Compound 552, 1-cyclobutyl-4-({4-[(3-methoxyphenyl)acetyl]piperazin-1-yl}acetyl)piperazine]: the inhibition at 4 µM is more than 90%.
On to `CC(C)c1ccc(CC(=O)N2CCN(CC(=O)N3CCN(C4CCC4)CC3)CC2)cc1` [Compound 560, 1-cyclobutyl-4-({4-[(4-isopropylphenyl)acetyl]piperazin-1-yl}acetyl)piperazine], for which the inhibition at 4 µM is more than 90%.
Take `O=C(Cc1cccc(F)c1)N1CCN(CC(=O)N2CCN(C3CCC3)CC2)CC1` [Compound 550, 1-cyclobutyl-4-({4-[(3-fluorophenyl)acetyl]piperazin-1-yl}acetyl)piperazine]: the inhibition at 4 µM is more than 90%.
For the molecule `CCOc1ccccc1CC(=O)N1CCN(CC(=O)N2CCN(C3CCC3)CC2)CC1` [Compound 533, 1-cyclobutyl-4-({4-[(2-ethoxyphenyl)acetyl]piperazin-1-yl}acetyl)piperazine], the inhibition at 4 µM is more than 90%.

Staying with this test, now noted: 1 h; Table II "Ki", symbol "+": assay described in Example 8; read-out: percent inhibition of agonist-induced GTP-gammaS binding to H3.
Turning to `COc1cc(C(=O)N2CCN(CC(=O)N3CCN(C4CCC4)CC3)CC2)nc2ccccc12` [Compound 895, 2-({4-[2-(4-cyclobutylpiperazin-1-yl)-2-oxoethyl]piperazin-1-yl}carbonyl)-4-methoxyquinoline], the inhibition at 4 µM is more than 90%.

The same test, now with this note: 1 h; Table II, "+" in the column headed Ki; assay of Example 8; read-out: percent inhibition of agonist-induced GTP-gammaS binding to H3.
Regarding `O=C(CN1CCN(C(=O)c2ccccc2Oc2ccccc2)CC1)N1CCN(C2CCC2)CC1` [Compound 718, 1-cyclobutyl-4-{[4-(2-phenoxybenzoyl)piperazin-1-yl]acetyl}piperazine], the inhibition at 4 µM is more than 90%.
Regarding `COc1ccccc1C(=O)N1CCN(CC(=O)N2CCN(C3CCC3)CC2)CC1` [Compound 711, 1-cyclobutyl-4-{[4-(2-methoxybenzoyl)piperazin-1-yl]acetyl}piperazine], the inhibition at 4 µM is more than 90%.
For `CCOc1ccccc1C(=O)N1CCN(CC(=O)N2CCN(C3CCC3)CC2)CC1` [Compound 699, 1-cyclobutyl-4-{[4-(2-ethoxybenzoyl)piperazin-1-yl]acetyl}piperazine], the inhibition at 4 µM was more than 90%.
Same read-out and setting: to `CSc1ncccc1C(=O)N1CCN(CC(=O)N2CCN(C3CCC3)CC2)CC1` [Compound 619] belongs more than 90%; to `O=C(CN1CCN(C(=O)c2ccc(C(F)(F)F)cc2)CC1)N1CCN(C2CCC2)CC1` [Compound 605, 1-cyclobutyl-4-({4-[4-(trifluoromethyl)benzoyl]piperazin-1-yl}acetyl)piperazine], more than 90%.
For `Cn1nc(C(F)(F)F)cc1-c1ccc(C(=O)N2CCN(CC(=O)N3CCN(C4CCC4)CC3)CC2)s1` [Compound 661, 1-cyclobutyl-4-{[4-({5-[1-methyl-3-(trifluoromethyl)-1H-pyrazol-5-yl]-2-thienyl}carbonyl)piperazin-1-yl]acetyl}piperazine], the inhibition at 4 µM is more than 90%.
Consider `O=C(CN1CCN(C(=O)c2ccccc2CCc2ccccc2)CC1)N1CCN(C2CCC2)CC1` [Compound 574, 1-cyclobutyl-4-({4-[2-(2-phenylethyl)benzoyl]piperazin-1-yl}acetyl)piperazine], for which the inhibition at 4 µM was more than 90%.
With `O=C(CN1CCN(C(=O)c2ccc(F)c(F)c2)CC1)N1CCN(C2CCC2)CC1` [Compound 729, 1-cyclobutyl-4-{[4-(3,4-difluorobenzoyl)piperazin-1-yl]acetyl}piperazine], the inhibition at 4 µM was more than 90%.
In the case of `O=C(CN1CCN(C(=O)c2ccccc2OC(F)(F)F)CC1)N1CCN(C2CCC2)CC1` [Compound 578, 1-cyclobutyl-4-({4-[2-(trifluoromethoxy)benzoyl]piperazin-1-yl}acetyl)piperazine], the inhibition at 4 µM is more than 90%.
Regarding `O=C(CN1CCN(C(=O)c2cccc(Oc3ccccc3)c2)CC1)N1CCN(C2CCC2)CC1` [Compound 764, 1-cyclobutyl-4-{[4-(3-phenoxybenzoyl)piperazin-1-yl]acetyl}piperazine], the inhibition at 4 µM was more than 90%.
As for `CSc1ccc(C(=O)N2CCN(CC(=O)N3CCN(C4CCC4)CC3)CC2)cc1` [Compound 600, 1-cyclobutyl-4-({4-[4-(methylthio)benzoyl]piperazin-1-yl}acetyl)piperazine], the inhibition at 4 µM was more than 90%.
On to `Cc1ccccc1C(=O)N1CCN(CC(=O)N2CCN(C3CCC3)CC2)CC1` [Compound 714, 1-cyclobutyl-4-{[4-(2-methylbenzoyl)piperazin-1-yl]acetyl}piperazine], for which the inhibition at 4 µM is more than 90%.
Consider `Cc1cc(C(=O)N2CCN(CC(=O)N3CCN(C4CCC4)CC3)CC2)c(C)o1` [Compound 688, 1-cyclobutyl-4-{[4-(2,5-dimethyl-3-furoyl)piperazin-1-yl]acetyl}piperazine], for which the inhibition at 4 µM is more than 90%.
With `O=C(CN1CCN(C(=O)c2c(Cl)cccc2Cl)CC1)N1CCN(C2CCC2)CC1` [Compound 691], the inhibition at 4 µM was more than 90%.
Consider `O=C(CN1CCN(C(=O)C(c2ccccc2)C2CCCCC2)CC1)N1CCN(C2CCC2)CC1` (centres unmarked) [Compound 612, 1-cyclobutyl-4-({4-[cyclohehexyl(phenyl)acetyl]piperazin-1-yl}acetyl)piperazine], for which the inhibition at 4 µM is more than 90%.
On the same count and under the same terms, the same measure for `COc1c(Cl)cc(Cl)c(OC)c1C(=O)N1CCN(CC(=O)N2CCN(C3CCC3)CC2)CC1` [Compound 737, 1-cyclobutyl-4-{[4-(3,5-dichloro-2,6-dimethoxybenzoyl)piperazin-1-yl]acetyl}piperazine]: more than 90%.
Turning to `Cc1cccc(C(=O)N2CCN(CC(=O)N3CCN(C4CCC4)CC3)CC2)c1C` [Compound 671, 1-cyclobutyl-4-{[4-(2,3-dimethylbenzoyl)piperazin-1-yl]acetyl}piperazine], the inhibition at 4 µM was more than 90%.

Staying with this test, now noted: 1 h; assay described in Example 8; symbol + in column headed Ki of Table II; read-out: percent inhibition of agonist-induced GTP-gammaS binding to H3.
For `O=C(/C=C/c1ccccc1Cl)N1CCN(CC(=O)N2CCN(C3CCC3)CC2)CC1` [Compound 389, 1-[(2E)-3-(2-chlorophenyl)prop-2-enoyl]-4-[2-(4-cyclobutylpiperazin-1-yl)-2-oxoethyl]piperazine], the inhibition at 4 µM was more than 90%.
As to `CC(C)(C)c1ccc(OCC(=O)N2CCN(CC(=O)N3CCN(C4CCC4)CC3)CC2)cc1` [Compound 408, 1-[(4-tert-butylphenoxy)acetyl]-4-[2-(4-cyclobutylpiperazin-1-yl)-2-oxoethyl]piperazine], the inhibition at 4 µM is more than 90%.
`Cc1cc(Cl)ccc1OCC(=O)N1CCN(CC(=O)N2CCN(C3CCC3)CC2)CC1` [Compound 405, 1-[(4-chloro-2-methylphenoxy)acetyl]-4-[2-(4-cyclobutylpiperazin-1-yl)-2-oxoethyl]piperazine]: the inhibition at 4 µM is more than 90%.
For the molecule `O=C(Cc1cccc(Br)c1)N1CCN(CC(=O)N2CCN(C3CCC3)CC2)CC1` [Compound 396, 1-[(3-bromophenyl)acetyl]-4-[2-(4-cyclobutylpiperazin-1-yl)-2-oxoethyl]piperazine], the inhibition at 4 µM is more than 90%.
Turning to `COc1ncc(Cl)cc1C(=O)N1CCN(CC(=O)N2CCN(C3CCC3)CC2)CC1` [Compound 413, 1-[(5-chloro-2-methoxypyridin-3-yl)carbonyl]-4-[2-(4-cyclobutylpiperazin-1-yl)-2-oxoethyl]piperazine], the inhibition at 4 µM was more than 90%.
On the same count and under the same terms, to `O=C(CN1CCN(C(=O)c2cccnc2Sc2ccc(Cl)cc2)CC1)N1CCN(C2CCC2)CC1` [Compound 256, 1-({2-[(4-chlorophenyl)thio]pyridin-3-yl}carbonyl)-4-[2-(4-cyclobutylpiperazin-1-yl)-2-oxoethyl]piperazine] belongs more than 90%.
With `O=C(/C=C/c1ccc2c(c1)OCO2)N1CCN(CC(=O)N2CCN(C3CCC3)CC2)CC1` [Compound 385, 1-[(2E)-3-(1,3-benzodioxol-5-yl)prop-2-enoyl]-4-[2-(4-cyclobutylpiperazin-1-yl)-2-oxoethyl]piperazine], the inhibition at 4 µM was more than 90%.

Staying with this test, now noted: 1 h; assay of Example 8; "+" in Ki of Table II; read-out: percent inhibition of agonist-induced GTP-gammaS binding to H3.
As for `CSc1ncc(Cl)c(C(=O)N2CCN(CC(=O)N3CCN(C4CCC4)CC3)CC2)n1` [Compound 1164, 5-chloro-4-({4-[2-(4-cyclobutylpiperazin-1-yl)-2-oxoethyl]piperazin-1-yl}carbonyl)-2-(methylthio)pyrimidine], the inhibition at 4 µM was more than 90%.
The same measure, in the same setting: the same measure for `Cc1ccc(C(=O)N2CCN(CC(=O)N3CCN(C4CCC4)CC3)CC2)cc1N` [Compound 1153, 5-({4-[2-(4-cyclobutylpiperazin-1-yl)-2-oxoethyl]piperazin-1-yl}carbonyl)-2-methylaniline]: more than 90%.

The term inhibition denotes the change of the read-out against control, counted positive when it falls.
